Laboratory results reported in patent US20190008983A1, “EXTRACELLULAR DRUG CONJUGATES TARGETING CD20” (priority 2015, published 2019).
Read-outs that look alike come from different tables or passages of the source.

Key:
[1] = test system: CD20 positive cell line SUDHL4; test: Cell proliferation/cytotoxicity assay (CellTiter-Glo) on SUDHL4 cells; type: cell-based, Human; settings: for EC50: read-out: EC50 in picoM, SUDHL4; for % viab., SUDHL4: figure in brackets after EC50
Method: (§1) These cell lines are the Ramos (Human Burkitt's lymphoma) and SUDHL4 (Non-Hodgkin lymphoma) cell lines. […] Cell viability was then analyzed using the CellTiter-Glo luminescent cell viability assay and standard package insert protocol of the manufacturer (Promega, Madison, Wis.).

[2] = test system: CD20 positive cell line Ramos; test: Cell proliferation/cytotoxicity assay (CellTiter-Glo) on Ramos cells; type: cell-based, Human; settings: for EC50 / % viab., Ramos: 72 hours incubation; for EC50: CellTiter-Glo, Tables 1-2, read-out: EC50 in picoM, Ramos; for % viab., Ramos: figure in brackets after EC50
Method: as §1

[3] = 72 hours incubation, CellTiter-Glo, Tables 1-2

Question: Which EC50 [1, 3] does the source give for `CN(CCCN)CCCNC(=O)O[C@H]1CC[C@@]2(C)[C@H](CC[C@@H]3[C@@H]2CC[C@]2(C)[C@H](c4ccc(=O)oc4)CC[C@]32O)C1` [CEN-372] here?
Answer: The EC50 was 4.4 nM.

Question: And the EC50 [2]?
Answer: The EC50 was 3.6 nM.

Question: Which EC50 ([1]; Homo sapiens, SU-DHL-4, 72 hours incubation, CellTiter-Glo, Tables 1-2) does the source give for `C[C@]12CC[C@H](O)C=C1CC[C@@H]1[C@@H]2CC[C@]2(C)[C@@H](c3ccc(=O)oc3)CC[C@]12O` [Scillarenin, reference compound] here?
Answer: The EC50 was 18 nM.

Question: With `C[C@]1(OC(=O)NCCCN2CCN(CCCN)CC2)CC[C@@]2(C)[C@H](CC[C@@H]3[C@@H]2CC[C@]2(C)[C@@](C)(C4=CC(=O)OC4)CC[C@]32O)C1` [CEN-381] as the molecule, how does the EC50 [1, 3] read?
Answer: Its EC50 is over 50 nM.

Question: What about the EC50 [2] of the same molecule?
Answer: The EC50 was over 50 nM.

Question: `CC12CCC(OC(=O)N3CCNCC3)CC1CCC1C2CCC2(C)C(c3ccc(=O)oc3)CCC12O` (stereo not shown) [CEN-371] was tested. Which EC50 [1, 3] did it give?
Answer: The EC50 was 11 nM.

Question: And the “% viab., SUDHL4” value ([1]; 72 hours incubation)?
Answer: Its value is 0%.

Question: What about the EC50 [2] of the same molecule?
Answer: Its EC50 is 7.81 nM.

Question: What about the “% viab., Ramos” value [2] of the same molecule?
Answer: Its value is 0%.

Question: `C[C@]12CC[C@H](O)C[C@H]1CC[C@@H]1[C@@H]2CC[C@]2(C)[C@@H](c3ccc(=O)oc3)CC[C@]12O` [Bufalin, reference compound] was tested. Which EC50 ([1]; Homo sapiens, SU-DHL-4, 72 h) did it give?
Answer: Its EC50 is 16 nM.

Question: With `C[C@]12CC[C@H](OC3OC[C@H](N)[C@@H](O)[C@@H]3O)C=C1CC[C@@H]1[C@@H]2CC[C@]2(C)[C@@H](c3ccc(=O)oc3)CC[C@]12O` (stereo partly shown) [CEN09-106] as the molecule, how does the “% viab., SUDHL4” value ([1]; 72 hours incubation) read?
Answer: Its value is 0%.

Question: And the “% viab., Ramos” value [2]?
Answer: The value was 0%.

Question: And the “activity on Ramos cells in FIG. 8 study” value ([2]; in the absence of complement, FIG. 8)?
Answer: The value was “significant but much less potent activity”.

Question: What does the source list for `C[C@]12CC[C@H](OC(=O)NCCCNCCCN)C[C@H]1CC[C@@H]1[C@@H]2CC[C@]2(C)[C@H](c3ccc(=O)oc3)CC[C@]12O` [CEN-373]?
Answer: EC50 [1, 3]: 5.9 nM; EC50 [2]: 4 nM

Question: Which EC50 ([1]; Homo sapiens, SU-DHL-4, 72 h) does the source give for `C[C@]12CC[C@H](O)C[C@H]1CC[C@@H]1[C@@H]2CC[C@]2(C)[C@@H](C3=CC(=O)OC3)CC[C@]12O` [Digitoxigenin, reference compound] here?
Answer: The EC50 was over 50 nM.
